Measured values: ChEMBL document CHEMBL5346952, “Dimer Peptide Ligands of Vascular Endothelial Growth Factor: Optimizing Linker Length for High Affinity and Antiangiogenic Activity” (J Med Chem, 2023)
Starred links: 1 amine or outer side, 2 acyl side, 3 side chain; linkers in the order of their positions; H or OH if unused. Positions of bridges follow the written chain, without caps; N, C: chain ends. Residues, ends and D or L forms follow the SMILES beside them. Chains are numbered I, II in the order given. X1 = O=C(CCOCCOCCOCCOCCOCCOCCOCCOCCOCCOCCOCCOCCOCCOCCOCCOCCOCCOCCOCCOCCOCCOCCOCCOCCOCCC(=O)[*:2])[*:1]

Key:
[1] = target: T1, Vascular endothelial growth factor A, long form (Homo sapiens, UniProt P15692); assay: Binding affinity to human VEGF (13 to 107 residues) expressed in Escherichia coli Rosetta (DE3) cells assessed as dissociation constant at 20 degreeC by isothermal titration calorimetry analysis
T1 sequence (P15692 whole entry): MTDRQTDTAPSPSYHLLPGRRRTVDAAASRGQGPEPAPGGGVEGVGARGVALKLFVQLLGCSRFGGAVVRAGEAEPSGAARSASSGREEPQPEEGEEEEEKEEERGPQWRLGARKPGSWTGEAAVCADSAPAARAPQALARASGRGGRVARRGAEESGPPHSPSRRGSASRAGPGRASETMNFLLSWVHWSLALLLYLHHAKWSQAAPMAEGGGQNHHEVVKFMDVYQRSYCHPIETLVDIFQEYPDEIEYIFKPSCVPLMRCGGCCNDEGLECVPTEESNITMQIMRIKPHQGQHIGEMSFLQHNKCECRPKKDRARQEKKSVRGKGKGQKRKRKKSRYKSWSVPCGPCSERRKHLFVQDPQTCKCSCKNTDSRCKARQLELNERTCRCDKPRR

[2] = target: T2, Vascular endothelial growth factor A, long form (Homo sapiens) (UniProt P15692); assay: Binding affinity to human VEGF (13 to 107 residues) expressed in Escherichia coli Rosetta (DE3) cells assessed as Gibbs free energy change at 20 degreeC by isothermal titration calorimetry analysis
T2 sequence (whole entry): T1 sequence (P15692 whole entry)

[3] = target: T2, Vascular endothelial growth factor A, long form (Homo sapiens); assay: Binding affinity to human VEGF (13 to 107 residues) expressed in Escherichia coli Rosetta (DE3) cells assessed as change in enthalpy at 20 degreeC by isothermal titration calorimetry analysis
[4] = target: T2, Vascular endothelial growth factor A, long form (Homo sapiens); assay: Binding affinity to human VEGF (13 to 107 residues) expressed in Escherichia coli Rosetta (DE3) cells assessed as change in entropy at 20 degreeC by isothermal titration calorimetry analysis
[5] = target: T2, Vascular endothelial growth factor A, long form (Homo sapiens); assay: Binding affinity to human VEGF (13 to 107 residues) expressed in Escherichia coli Rosetta (DE3) cells assessed as change in heat capacity at 20 degreeC by isothermal titration calorimetry analysis
[6] = target: T1, Vascular endothelial growth factor A, long form; assay: Binding affinity to human VEGF (13 to 107 residues) expressed in Escherichia coli Rosetta (DE3) cells assessed as dissociation constant at 37 degreeC by isothermal titration calorimetry analysis
[7] = target: T2, Vascular endothelial growth factor A, long form (Homo sapiens); assay: Binding affinity to human VEGF (13 to 107 residues) expressed in Escherichia coli Rosetta (DE3) cells assessed as Gibbs free energy change at 37 degreeC by isothermal titration calorimetry analysis
[8] = target: T2, Vascular endothelial growth factor A, long form (Homo sapiens); assay: Binding affinity to human VEGF (13 to 107 residues) expressed in Escherichia coli Rosetta (DE3) cells assessed as change in enthalpy at 37 degreeC by isothermal titration calorimetry analysis
[9] = target: T2, Vascular endothelial growth factor A, long form (Homo sapiens); assay: Binding affinity to human VEGF (13 to 107 residues) expressed in Escherichia coli Rosetta (DE3) cells assessed as change in entropy at 37 degreeC by isothermal titration calorimetry analysis
[10] = target: T1, Vascular endothelial growth factor A, long form; assay: Binding affinity to human VEGF (13 to 107 residues) expressed in Escherichia coli Rosetta (DE3) cells assessed as dissociation constant at 20 degreeC by direct titration based isothermal titration calorimetry analysis
[11] = target: T1, Vascular endothelial growth factor A, long form; assay: Binding affinity to human VEGF (13 to 107 residues) expressed in Escherichia coli Rosetta (DE3) cells assessed as dissociation constant at 37 degreeC by direct titration based isothermal titration calorimetry analysis
[12] = target: T2, Vascular endothelial growth factor A, long form (Homo sapiens); assay: Binding affinity to human VEGF (13 to 107 residues) expressed in Escherichia coli Rosetta (DE3) cells assessed as change in enthalpy at 20 degreeC by direct titration based isothermal titration calorimetry analysis
[13] = target: T2, Vascular endothelial growth factor A, long form (Homo sapiens); assay: Binding affinity to human VEGF (13 to 107 residues) expressed in Escherichia coli Rosetta (DE3) cells assessed as change in enthalpy at 37 degreeC by direct titration based isothermal titration calorimetry analysis
[14] = target: T2, Vascular endothelial growth factor A, long form (Homo sapiens); assay: Binding affinity to human VEGF (13 to 107 residues) expressed in Escherichia coli Rosetta (DE3) cells assessed as change in entropy at 20 degreeC by direct titration based isothermal titration calorimetry analysis
[15] = target: T2, Vascular endothelial growth factor A, long form (Homo sapiens); assay: Binding affinity to human VEGF (13 to 107 residues) expressed in Escherichia coli Rosetta (DE3) cells assessed as change in entropy at 37 degreeC by direct titration based isothermal titration calorimetry analysis
[16] = target: T1, Vascular endothelial growth factor A, long form; assay: Binding affinity to human VEGF (13 to 107 residues) expressed in Escherichia coli Rosetta (DE3) cells assessed as dissociation constant at 20 degreeC by reverse titration based isothermal titration calorimetry analysis
[17] = target: T1, Vascular endothelial growth factor A, long form; assay: Binding affinity to human VEGF (13 to 107 residues) expressed in Escherichia coli Rosetta (DE3) cells assessed as dissociation constant at 37 degreeC by reverse titration based isothermal titration calorimetry analysis
[18] = target: T2, Vascular endothelial growth factor A, long form (Homo sapiens); assay: Binding affinity to human VEGF (13 to 107 residues) expressed in Escherichia coli Rosetta (DE3) cells assessed as change in enthalpy at 20 degreeC by reverse titration based isothermal titration calorimetry analysis
[19] = target: T2, Vascular endothelial growth factor A, long form (Homo sapiens); assay: Binding affinity to human VEGF (13 to 107 residues) expressed in Escherichia coli Rosetta (DE3) cells assessed as change in enthalpy at 37 degreeC by reverse titration based isothermal titration calorimetry analysis
[20] = target: T2, Vascular endothelial growth factor A, long form (Homo sapiens); assay: Binding affinity to human VEGF (13 to 107 residues) expressed in Escherichia coli Rosetta (DE3) cells assessed as change in entropy at 20 degreeC by reverse titration based isothermal titration calorimetry analysis
[21] = target: T2, Vascular endothelial growth factor A, long form (Homo sapiens); assay: Binding affinity to human VEGF (13 to 107 residues) expressed in Escherichia coli Rosetta (DE3) cells assessed as change in entropy at 37 degreeC by reverse titration based isothermal titration calorimetry analysis
HUVEC [22] = assay: Antiangiogenic activity in human HUVEC cells assessed as inhibition of VEGFA-induced capillary tube formation incubated for 6 hrs by matrigel based microscopic analysis; format: functional, cell-based
HUVEC [23] = assay: Antiangiogenic activity in human HUVEC cells assessed as inhibition of VEGFA-induced cell migration incubated for 12 hrs by wound healing assay; format: functional, cell-based

Kd [1]: 9 nM
deltaG [2]: -10.8 kcal/mol
deltaH [3]: -37.5 kcal/mol
-TdeltaS [4]: 26.7 kcal/mol
DeltaCp [5]: -0.75 kcal/mol/K
Kd [6]: 26 nM
deltaG [7]: -10.8 kcal/mol
deltaH [8]: -50.3 kcal/mol
-TdeltaS [9]: 39.5 kcal/mol
Kd [10]: 12 nM
Kd [11]: 26 nM
deltaH [12]: -35.6 kcal/mol
deltaH [13]: -50.2 kcal/mol
deltaS [14]: -95.4 cal/mol.K
deltaS [15]: -127 cal/mol.K
Kd [16]: 11 nM
Kd [17]: 14 nM
deltaH [18]: -37.4 kcal/mol
deltaH [19]: -50.6 kcal/mol
deltaS [20]: -91.1 cal/mol.K
deltaS [21]: -127 cal/mol.K
SMILES: CC[C@H](C)[C@@H]1NC(=O)[C@H](CC(=O)O)NC(=O)[C@@H](NC(C)=O)CSSC[C@@H]2NC(=O)[C@H](CCCCNC(=O)C[C@@H](C(=O)N[C@@H](CC(C)C)C(N)=O)NC(=O)[C@H](CCC(=O)O)NC(=O)[C@H](Cc3ccccc3)NC2=O)NC(=O)[C@H](Cc2c[nH]c3ccccc23)NC(=O)[C@H](CCC(=O)O)NC(=O)[C@H](Cc2c[nH]c3ccccc23)NC(=O)[C@H](CCCCNC(=O)CCOCCOCCOCCOCCOCCOCCOCCOCCOCCOCCOCCOCCOCCOCCOCCOCCOCCOCCOCCOCCOCCOCCOCCOCCOCCC(=O)NCCCC[C@@H]2NC(=O)[C@H](C(C)C)NC(=O)[C@H](Cc3cnc[nH]3)NC(=O)[C@H]([C@@H](C)CC)NC(=O)[C@H](CC(=O)O)NC(=O)[C@@H](NC(C)=O)CSSC[C@@H]3NC(=O)[C@H](CCCCNC(=O)C[C@@H](C(=O)N[C@@H](CC(C)C)C(N)=O)NC(=O)[C@H](CCC(=O)O)NC(=O)[C@H](Cc4ccccc4)NC3=O)NC(=O)[C@H](Cc3c[nH]c4ccccc34)NC(=O)[C@H](CCC(=O)O)NC(=O)[C@H](Cc3c[nH]c4ccccc34)NC2=O)NC(=O)[C@H](C(C)C)NC(=O)[C@H](Cc2cnc[nH]2)NC1=O (I: Ac-CDIHVKWEWKCFEDL-NH2 / II: Ac-CDIHVKWEWKCFEDL-NH2; disulfide I:1-I:11, II:1-II:11; linker I:6-II:6 via X1; lactam I:10-I:14, II:10-II:14)
Activity (HUVEC [22]): Dose-Dependent Effect
Activity (HUVEC [23]): Dose-Dependent Effect
